Test system: blood of a crab-eating macaque
Assay: Degree of coagulation of blood with coagulating agents (autologous blood clot formation)
Conditions: blood in catheter, incubated 24 hours at 37° C., versus blood coagulated alone
Description: As coagulating agents, ADP and thrombin were used to examine the degree of coagulation. ADP was used at concentrations of 30 and 100 μg/ml (without thrombin at both concentrations), and thrombin at concentrations of 0.5 and 10% (w/v) (without ADP at both concentrations). Blood was drawn from the ventral tail artery of a crab-eating macaque, and was placed into a catheter with or without adding a coagulating agent, incubated for 24 hours at 37° C., and then pushed out to observe the condition of coagulation. As control was used a sample to which neither of the coagulating agents was added (blood which was coagulated alone). The results were shown in the left panel of FIG. 3. […] Next, a blood clot which was obtained by incubating blood for 24 hours at 37° C. with 100 μg of ADP and 10% (w/v) of thrombin was immersed in a povidone-iodine solution, followed by X-ray photography. As shown in the right panel of FIG. 3, there was observed a shade corresponding to the blood clot, allowing one to identify the location of a blood clot be means of an X-ray photographic apparatus.

Row | Molecule | condition of coagulation (ADP 30 and 100 μg/ml without thrombin) | condition of coagulation (thrombin 0.5 and 10% (w/v) without ADP)
1 | Nc1ncnc2c1ncn2[C@@H]1O[C@H](COP(=O)(O)OP(=O)(O)O)[C@@H](O)[C@H]1O [ADP, adenosine diphosphate] | the higher concentration of ADP, the better coagulation took place | 
2 | Thrombin |  | comparable coagulation at both 0.5 and 10% (w/v)
